The record followed here is patent US20130315981A1, “METHOD FOR INDUCING FAT LOSS IN MAMMALS” (The Trustees of Columbia University in the City of New York, priority 2010, published 2013).

The subject of experiment [1] is bone marrow-derived macrophages (BMDMs). Nature of the experiment: Macrophage migration assay with explant-conditioned media. The class given is cell-based, C57BL/6J mice. Particulars: explant-conditioned medium, isoproterenol-treated explants; comparable to MCP-1/CCL2 (50 ng/ml). The text has this: Murine BMDMs were differentiated in vitro from bone marrow precursor cells. Briefly, bone marrow cells were flushed from femurs and tibias of 9-week-old C57BL/6J mice, washed in DMEM (Invitrogen), and grown for 7 days in Petri dishes containing DMEM with 10% FBS, 20% L929 cell-conditioned media, 5% horse serum, 1% glutamine, and 1% sodium pyruvate. On the seventh day, media were replaced with DMEM containing 10% FBS, 10% L929 cell-conditioned media, 5% horse serum, 1% glutamine, and 1% sodium pyruvate; macrophages were grown for 3 more days. Differentiation was confirmed by FACS analysis. BMDM migration was evaluated using the QCM chemotaxis […] 96-well cell migration assay (Millipore) according to the manufacturer's instructions.
(§1) Explant-conditioned media, plain media, or media containing recombinant MCP-1 (50 ng/ml) (PeproTech) were added into the lower chamber. To obtain explant-conditioned media, explants were isolated from lean 10-week-old C57BL/6J mice that were ad libitum fed or fasted for 24 hours. […] Explant FFA content was evaluated using the HR NEFA series (Wako Diagnostics). […] At the end of the incubation, cells were detected by a green fluorescent dye (CyQUANT dye) included in the assay. Fluorescence intensity was measured with the Infinite 500 (Tecan). Cell numbers were determined based on fluorescence readings and a standard curve.

In experiment [2] the test system is perigonadal adipose tissue explants. Nature of the experiment: Lipolysis (FFA release) of perigonadal adipose tissue explants with isoproterenol. The class given is cell-based, C57BL/6J mice. Details: dose or concentration left out as unconfirmed. Particulars: explants from lean ad libitum-fed mice. On the procedure: Perigonadal fat pads were surgically removed from high-fat-fed C57BL/6J mice (n=5/group), which were either ad libitum fed or were undergoing caloric restriction. Subsequently, they were washed several times with PBS. Tissue pieces (−100 mg total weight) were incubated in DMEM (Invitrogen) containing 2% fatty acid-free BSA (Sigma-Aldrich) at 37° C. Aliquots were collected after 120 minutes and investigated for FFA and glycerol content. FFA and glycerol were measured using the HR NEFA series (Wako Diagnostics) and the free glycerol determination kit (Sigma-Aldrich), respectively. We measured adipocyte numbers in parallel samples from weight- and fat-matched ad libitum-fed and calorically restricted mice.
as §1

Experiment [3] concerns stromal vascular cells (SVCs). Nature of the experiment: Co-culture of SVCs with adipose tissue with or without isoproterenol. The class given is cell-based, C57BL/6J mice.
Method: RNA was isolated from SVCs using the QIAGEN RNeasy Minikit (QIAGEN) and used as template for cDNA synthesis using Superscript III reverse transcriptase (Invitrogen) and random hexamer primers. Quantitative RT-PCR assays were carried out using DNA Engine Opticon 2 system instruments (Bio-Rad) and PCR SYBR Green I QuantiTect Master Mix (QIAGEN). The mRNA expression of all genes reported is normalized to the cyclophilin B (Ppib) gene expression. Every reaction was performed in duplicate, and the data were analyzed with the 2-DDCT method (49). To isolate SVCs, perigonadal adipose tissue was isolated from high-fat diet-induced obese C57BL/6J male mice immediately after CO2 asphyxiation. Tissues were handled using sterile techniques and minced into fine (<10 mg) pieces. For SVC isolation, minced samples were placed in DMEM (Invitrogen) supplemented with 10 mg/ml BSA (Sigma-Aldrich). An LPS-depleted collagenase cocktail (Liberase 3; Roche Applied Science) at a concentration of 0.03 mg/ml was added to the tissue suspension, and the samples were incubated at 37° C. on an orbital shaker (200 g) for 45 minutes. Once digestion was complete, samples were passed through a sterile 250-mm nylon mesh (Sefar America Inc.). The suspension was centrifuged at 500 g for 5 minutes. The pelleted cells were collected as SVCS. The SVCS were resuspended in erythrocyte lysis buffer (BD Biosciences) and incubated at room temperature for 1 minute. SVCS were plated at a concentration of 650,000 cells/well on cell culture inserts with 1-mm pore size (BD). Each insert was placed in a well of a 12-well tissue culture plate (BD) containing 100 mg of finely minced adipose tissue. To isolate small intact pieces of adipose tissue for culture, perigonadal adipose tissue was remove from high-fat-fed obese C57BL/6J mice and minced to approximately 10-mg size pieces. SVCS were cocultured with adipose tissue pieces for 24 hours in DMEM containing 10% FBS, 1% penicillin, and 2% fatty acid-free BSA. Isoproterenol (Sigma-Aldrich) was added in selected wells at a concentration of 10 mmoles/1. The stromal vascular fraction was collected for gene expression or oil red 0 staining after 24 hours. SVCS were air-dried and fixed with zinc-formalin fixative (see above) for 10 minutes and stained oil red O as previously described (50).
Experiment [4] deals with ATMs in perigonadal adipose tissue. The experiment can be described thus: CL316,243 treatment of lean mice: ATM content in perigonadal adipose tissue. The class given is in vivo, C57BL/6J mice. On the procedure: Ten 8-week-old C57BL/6J mice fed the standard pellet diet (see above) were injected intraperitoneally with 1 mg/kg of CL316,243 or saline twice (4 hours between each injection). Mice were sacrificed 14 hours after the second injection. Perigonadal adipose tissue was excised and samples were stored as described above.
Adipose tissue samples were fixed for 48 hours at room temperature in zinc-formalin fixative (Anatech Ltd.), incubated in 70% ethanol for 24 hours, and subsequently embedded in paraffin. […] For each individual adipose tissue depot, 5-10 different high-power fields from each of 3 different sections were analyzed. The total number of nuclei and the number of nuclei of F4/80-expressing cells were counted for each field. The fraction of F4/80-expressing cells for each sample was calculated as the sum of the number of nuclei of F4/80-expressing cells divided by the total number of nuclei in sections of a sample. Cross-sectional area was determined for each adipocyte in each field using image analysis software Image-Pro Plus (Media Cybernetics Inc.). For each mouse, 800-1000 adipocytes were counted. Adipocyte number was calculated from fat pad weight and adipocyte volume (48). […] For each individual adipose tissue depot, 10 different high-power fields from each of 3 different sections were analyzed. […]

With `CC(C)NCC(O)c1ccc(O)c(O)c1` (stereo not shown) [isoproterenol], in experiment [1], the “chemotactic activity of adipose tissue toward BMDMs” value is given as “proportional increase in the chemotactic activity”. Also, the “lipolysis as release of FFA from explants” value in experiment [2] is listed as “increased lipolysis”. Also, in experiment [3] (SVCs cultured in the absence of adipose tissue, 24 hours), the “SVC gene expression or lipid accumulation” value was “no effect”. The “lipid accumulation within SVCs (oil red O)” value in experiment [3] (coculture with adipose tissue plus isoproterenol) is “accumulation of lipid within SVCS”. For the same molecule, the “Ccr2 gene expression in the SVC fraction” value in experiment [3] (coculture with adipose tissue plus isoproterenol stimulation) is listed as “induced Ccr2 gene expression”. Further, the “program of adipocyte differentiation in SVCs (adiponectin, leptin, Pparg expression)” value in experiment [3] (in the presence of adipose tissue) is listed as “no activation of a program of adipocyte differentiation”. For the same molecule, in experiment [3] (in the presence of adipose tissue, 24 hours), the “Adfp gene expression in SVCs” value is given as “induced the expression of the gene Adfp”. Also, the “Cd36 expression in SVCs” value in experiment [3] (in the presence of adipose tissue, P=0.09) is “increased”.

Take `C[C@H](Cc1ccc2c(c1)OC(C(=O)[O-])(C(=O)[O-])O2)NC[C@H](O)c1cccc(Cl)c1.[Na+].[Na+]` [CL316,243]: in experiment [4] (lean C57BL/6J mice, 1 mg/kg intraperitoneally twice 4 hours apart, tissue 14 hours after final injection, vs control-treated mice), the “increase of ATM content in perigonadal adipose tissue” value is reported as “more than 5 fold”. Also, in experiment [4] (lean mice, CL316,243 vs vehicle, perigonadal adipose tissue), the “inflammatory phenotype of adipose tissue (expression of inflammatory markers)” value was “do not increase the inflammatory phenotype of adipose tissue”.
